Results from ChEMBL document CHEMBL1133359, “New fluorogenic substrate for the first continuous steroid sulfatase assay” (Bioorg Med Chem Lett, 2000).

T1: Steryl-sulfatase (Homo sapiens) (UniProt P08842)
T1 sequence (whole entry): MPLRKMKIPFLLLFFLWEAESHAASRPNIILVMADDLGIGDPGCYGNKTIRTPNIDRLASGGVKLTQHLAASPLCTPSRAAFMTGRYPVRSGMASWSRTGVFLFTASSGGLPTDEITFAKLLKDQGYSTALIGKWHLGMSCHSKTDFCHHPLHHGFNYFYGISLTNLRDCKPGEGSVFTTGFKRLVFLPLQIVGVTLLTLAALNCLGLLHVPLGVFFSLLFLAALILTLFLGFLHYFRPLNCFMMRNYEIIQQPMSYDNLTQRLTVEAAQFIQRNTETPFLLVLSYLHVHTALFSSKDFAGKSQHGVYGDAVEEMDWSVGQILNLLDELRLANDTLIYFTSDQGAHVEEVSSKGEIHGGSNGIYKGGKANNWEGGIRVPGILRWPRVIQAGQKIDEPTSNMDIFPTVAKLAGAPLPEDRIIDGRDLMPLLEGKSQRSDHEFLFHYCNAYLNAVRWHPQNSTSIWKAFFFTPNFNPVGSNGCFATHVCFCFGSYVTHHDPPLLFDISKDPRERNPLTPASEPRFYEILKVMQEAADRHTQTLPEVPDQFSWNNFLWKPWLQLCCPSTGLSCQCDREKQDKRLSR


Assays:
[1] = target: T1, Steryl-sulfatase (Homo sapiens); experiment: kcat value was determined
[2] = target: T1, Steryl-sulfatase (Homo sapiens); experiment: Inhibitory potency against recombinant human steroid sulfatase relative to compound 3 = 1
[3] = target: T1, Steryl-sulfatase (Homo sapiens)
Description: Tested for relative inhibitory potency against recombinant human steroid sulfatase

[4] = compound: C[C@]12CC[C@@H]3c4ccc(OS(N)(=O)=O)cc4CC[C@H]3[C@@H]1CCC2=O; experiment: (§1) Tested for inhibitory potency against recombinant human steroid sulfatase
[5] = compound: Cc1cc(=O)oc2cc(OS(N)(=O)=O)ccc12; experiment: as §1
[6] = compound: O=c1oc2cc(OS(=O)(=O)O)ccc2c2ccccc12; experiment: as §1

rIC50 [2] | Molecule | also measured
 | O=c1oc2cc(OS(=O)(=O)O)ccc2c2ccccc12 | k cat [1]: 0.24 s⁻¹
11 | Cc1c(-c2ccccc2)c(=O)oc2cc(OS(N)(=O)=O)ccc12 | 
 | C[C@]12CC[C@@H]3c4ccc(OS(N)(=O)=O)cc4CC[C@H]3[C@@H]1CCC2=O | rIC50 [3]: 1
30 | Cc1cc(=O)oc2cc(OS(N)(=O)=O)ccc12 | 
5 | NS(=O)(=O)Oc1ccc2c(c1)oc(=O)c1c3ccccc3oc21 | 
3 | NS(=O)(=O)Oc1ccc2c(c1)oc(=O)c1ccccc12 | 
> 250 | NS(=O)(=O)Oc1ccc2cc(-c3nc4ccccc4s3)c(=O)oc2c1 | 
> 160 | NS(=O)(=O)Oc1ccc2c(c1)oc1c3ccccc3oc(=O)c21 | 
> 250 | Cc1c(-c2ccccc2)c(=O)oc2ccc(OS(N)(=O)=O)cc12 | 
48 | NS(=O)(=O)Oc1ccc2cc(-c3ccccc3)c(=O)oc2c1 | 
3.5 | NS(=O)(=O)Oc1ccc2c(c1)oc(=O)c1c3ccc(O)cc3oc21 | 
 | Steryl-sulfatase (Homo sapiens), P08842 (protein) MPLRKMKIPFLLLFFLWEAESHAASRPNIILVMADDLGIGDPGCYGNKTIRTPNIDRLASGGVKLTQHLAASPLCTPSRAAFMTGRYPVRSGMASWSRTGVFLFTASSGGLPTDEITFAKLLKDQGYSTALIGKWHLGMSCHSKTDFCHHPLHHGFNYFYGISLTNLRDCKPGEGSVFTTGFKRLVFLPLQIVGVTLLTLAALNCLGLLHVPLGVFFSLLFLAALILTLFLGFLHYFRPLNCFMMRNYEIIQQPMSYDNLTQRLTVEAAQFIQRNTETPFLLVLSYLHVHTALFSSKDFAGKSQHGVYGDAVEEMDWSVGQILNLLDELRLANDTLIYFTSDQGAHVEEVSSKGEIHGGSNGIYKGGKANNWEGGIRVPGILRWPRVIQAGQKIDEPTSNMDIFPTVAKLAGAPLPEDRIIDGRDLMPLLEGKSQRSDHEFLFHYCNAYLNAVRWHPQNSTSIWKAFFFTPNFNPVGSNGCFATHVCFCFGSYVTHHDPPLLFDISKDPRERNPLTPASEPRFYEILKVMQEAADRHTQTLPEVPDQFSWNNFLWKPWLQLCCPSTGLSCQCDREKQDKRLSR | Km [4]: 95 µM; Km [5]: 275 µM; Km [6]: 22.5 µM
